We go through six compounds from article PMC7294773 (Neuropharmacology, 2017).

“Also recorded” adds a separate entry of the source. Like-named read-outs stand apart in the source and are kept apart here.

One assay concerns the target SERT (Rattus norvegicus, UniProt P31652). In words: Release of [3H]5-HT from rat brain synaptosomes. It counts as biochemical.
The next assay addresses human DAT (hDAT) (Homo sapiens, UniProt Q01959). Kind of assay: Radiotracer uptake inhibition in HEK293 cells expressing hDAT. It counts as cell-based. As to conditions: for DAT / NET ratio (uptake inhibition): 1/(DAT IC50) divided by 1/(NET IC50); for DAT / SERT ratio (uptake inhibition): 1/(DAT IC50) divided by 1/(SERT IC50); for IC50: IC50 DAT, inhibition of transporter-mediated uptake, hDAT, [3H]MPP+ 20 nM, mean ± SEM, n=3.

A further assay concerns NET. Kind of assay: Release of [3H]MPP+ from rat brain synaptosomes. The assay is classed as biochemical. As to conditions: 1/(NET EC50) divided by 1/(SERT EC50).
The next assay addresses human SERT (hSERT) (Homo sapiens, UniProt P31645). Kind of assay: Radiotracer uptake inhibition in HEK293 cells expressing hSERT. As to conditions: for IC50: IC50 SERT, inhibition of transporter-mediated uptake, hSERT, [3H]5HT 100 nM, mean ± SEM, n=3. The assay is classed as cell-based.
For assay [1], the target named is T1, hSERT (Homo sapiens, UniProt P31645). As to conditions: for Ionic current mediated via hSERT: cells clamped to −60 mV, representative traces; for Kind of current evoked in SERT-expressing cells: whole-cell patch clamp, in words.
T1 sequence (P31645 whole entry): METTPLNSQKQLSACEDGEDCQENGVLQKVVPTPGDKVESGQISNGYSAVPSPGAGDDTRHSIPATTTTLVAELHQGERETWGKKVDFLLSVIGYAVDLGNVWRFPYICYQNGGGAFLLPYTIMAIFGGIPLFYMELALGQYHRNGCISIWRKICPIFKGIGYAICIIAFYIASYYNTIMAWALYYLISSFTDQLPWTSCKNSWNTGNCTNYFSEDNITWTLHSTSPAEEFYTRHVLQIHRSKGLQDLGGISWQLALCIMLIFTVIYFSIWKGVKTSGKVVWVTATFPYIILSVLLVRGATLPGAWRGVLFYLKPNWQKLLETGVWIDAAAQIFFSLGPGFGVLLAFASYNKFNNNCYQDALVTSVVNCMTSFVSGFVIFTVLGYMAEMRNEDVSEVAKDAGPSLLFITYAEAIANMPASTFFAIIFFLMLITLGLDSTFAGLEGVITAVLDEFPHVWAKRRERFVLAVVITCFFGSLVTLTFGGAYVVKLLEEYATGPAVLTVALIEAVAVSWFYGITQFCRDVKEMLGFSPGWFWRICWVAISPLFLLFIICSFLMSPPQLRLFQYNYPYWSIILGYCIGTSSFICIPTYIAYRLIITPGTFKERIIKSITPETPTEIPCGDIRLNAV
Assay [2] has as its target T1, hSERT. The assay is classed as cell-based. As to conditions: 5 µM, without monensin, HEK293 cells.
Another assay has as its target hNET (Homo sapiens, UniProt P23975). The assay is classed as cell-based. As to conditions: 5 µM, without monensin, HEK293 cells.
The target of assay [3] is T2, hDAT (Homo sapiens, UniProt Q01959). It counts as cell-based. As to conditions: 5 µM, without monensin, HEK293 cells.
T2 sequence (Q01959 whole entry): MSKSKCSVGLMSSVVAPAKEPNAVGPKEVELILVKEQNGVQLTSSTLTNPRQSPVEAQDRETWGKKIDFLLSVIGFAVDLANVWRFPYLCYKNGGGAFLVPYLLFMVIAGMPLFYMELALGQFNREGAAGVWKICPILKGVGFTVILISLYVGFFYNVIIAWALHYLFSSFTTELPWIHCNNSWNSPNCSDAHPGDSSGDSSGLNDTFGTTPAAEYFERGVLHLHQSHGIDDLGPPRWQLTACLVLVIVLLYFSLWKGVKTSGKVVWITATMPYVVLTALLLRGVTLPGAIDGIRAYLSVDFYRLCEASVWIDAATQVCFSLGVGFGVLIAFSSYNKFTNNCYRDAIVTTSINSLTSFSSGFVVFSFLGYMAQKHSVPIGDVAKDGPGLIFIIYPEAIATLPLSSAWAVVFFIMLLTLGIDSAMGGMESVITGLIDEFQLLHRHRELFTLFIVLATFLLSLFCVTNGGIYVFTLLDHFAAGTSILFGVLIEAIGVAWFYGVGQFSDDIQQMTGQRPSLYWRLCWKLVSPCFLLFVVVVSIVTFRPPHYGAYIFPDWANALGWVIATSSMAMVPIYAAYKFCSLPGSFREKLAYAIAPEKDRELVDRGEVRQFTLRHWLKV
Assay [4] deals with T3, DAT (Rattus norvegicus, UniProt P23977). In words: Release of [3H]MPP+ from rat striatal synaptosomes. It counts as biochemical. As to conditions: for DAT / NET ratio (release): 1/(DAT EC50) divided by 1/(NET EC50); for DAT / NET ratio (release) / DAT / SERT ratio (release): rat brain synaptosomes; for DAT / SERT ratio (release): 1/(DAT EC50) divided by 1/(SERT EC50).
T3 sequence (P23977 whole entry): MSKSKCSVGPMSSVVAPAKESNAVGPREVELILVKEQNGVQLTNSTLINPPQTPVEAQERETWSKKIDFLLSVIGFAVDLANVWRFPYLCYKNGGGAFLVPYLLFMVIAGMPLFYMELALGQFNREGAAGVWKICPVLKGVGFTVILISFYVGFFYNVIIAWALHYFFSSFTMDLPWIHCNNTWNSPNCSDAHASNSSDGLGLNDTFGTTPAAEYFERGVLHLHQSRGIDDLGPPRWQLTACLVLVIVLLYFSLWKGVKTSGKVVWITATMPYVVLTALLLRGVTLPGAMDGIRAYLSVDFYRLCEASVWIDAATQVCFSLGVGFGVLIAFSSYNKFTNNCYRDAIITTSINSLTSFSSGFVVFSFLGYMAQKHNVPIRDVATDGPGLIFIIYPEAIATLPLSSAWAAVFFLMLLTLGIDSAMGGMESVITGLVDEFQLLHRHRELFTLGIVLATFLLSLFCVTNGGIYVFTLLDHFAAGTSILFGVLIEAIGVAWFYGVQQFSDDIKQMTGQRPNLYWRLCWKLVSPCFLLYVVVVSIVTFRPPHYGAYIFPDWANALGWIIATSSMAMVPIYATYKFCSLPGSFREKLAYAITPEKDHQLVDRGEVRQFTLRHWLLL
A further assay deals with human NET (hNET) (Homo sapiens, UniProt P23975). Kind of assay: Radiotracer uptake inhibition in HEK293 cells expressing hNET. The assay is classed as cell-based. As to conditions: for NET / SERT ratio (uptake inhibition): 1/(NET IC50) divided by 1/(SERT IC50); for IC50: IC50 NET, inhibition of transporter-mediated uptake, hNET, [3H]MPP+ 20 nM, mean ± SEM, n=3.
Sequence of human NET (hNET) (P23975 whole entry): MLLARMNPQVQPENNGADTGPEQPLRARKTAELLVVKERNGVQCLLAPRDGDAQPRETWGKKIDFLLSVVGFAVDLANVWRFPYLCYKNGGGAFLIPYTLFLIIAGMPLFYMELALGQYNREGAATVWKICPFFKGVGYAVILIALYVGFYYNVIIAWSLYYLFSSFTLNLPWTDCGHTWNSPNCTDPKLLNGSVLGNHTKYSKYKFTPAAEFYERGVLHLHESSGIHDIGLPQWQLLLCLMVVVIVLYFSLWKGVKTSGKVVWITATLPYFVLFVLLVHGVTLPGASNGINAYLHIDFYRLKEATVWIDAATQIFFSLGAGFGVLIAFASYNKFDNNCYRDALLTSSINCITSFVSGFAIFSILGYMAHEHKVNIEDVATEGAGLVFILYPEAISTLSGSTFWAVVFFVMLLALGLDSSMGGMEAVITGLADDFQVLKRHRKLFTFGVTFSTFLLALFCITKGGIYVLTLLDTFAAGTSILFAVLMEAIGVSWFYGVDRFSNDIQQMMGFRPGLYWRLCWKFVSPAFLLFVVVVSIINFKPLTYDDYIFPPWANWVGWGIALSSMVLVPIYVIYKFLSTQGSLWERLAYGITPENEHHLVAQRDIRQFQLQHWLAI
In assay [5] the target is T3, DAT. As to conditions: in vitro findings; ref Rothman et al., 2002; cited from earlier work.
Assay [6] has as its system vesicular monoamine transporter 2 (VMAT2). As to conditions: at concentrations up to 100 μM; ref Partilla et al., 2006; cited from earlier work.
For assay [7], the system named is extracellular dopamine and serotonin in rat nucleus accumbens. As to conditions: systemic administration, ref Rothman et al., 2002; cited from earlier work.
Assay [8] addresses T2, hDAT. As to conditions: ref Solis et al., 2016; cited from earlier work.

Sequence of human SERT (hSERT) (P31645 whole entry): as the sequence (P31645 whole entry) above
Sequence of human DAT (hDAT) (Q01959 whole entry): as the sequence (Q01959 whole entry) above
Sequence of SERT (P31652 whole entry): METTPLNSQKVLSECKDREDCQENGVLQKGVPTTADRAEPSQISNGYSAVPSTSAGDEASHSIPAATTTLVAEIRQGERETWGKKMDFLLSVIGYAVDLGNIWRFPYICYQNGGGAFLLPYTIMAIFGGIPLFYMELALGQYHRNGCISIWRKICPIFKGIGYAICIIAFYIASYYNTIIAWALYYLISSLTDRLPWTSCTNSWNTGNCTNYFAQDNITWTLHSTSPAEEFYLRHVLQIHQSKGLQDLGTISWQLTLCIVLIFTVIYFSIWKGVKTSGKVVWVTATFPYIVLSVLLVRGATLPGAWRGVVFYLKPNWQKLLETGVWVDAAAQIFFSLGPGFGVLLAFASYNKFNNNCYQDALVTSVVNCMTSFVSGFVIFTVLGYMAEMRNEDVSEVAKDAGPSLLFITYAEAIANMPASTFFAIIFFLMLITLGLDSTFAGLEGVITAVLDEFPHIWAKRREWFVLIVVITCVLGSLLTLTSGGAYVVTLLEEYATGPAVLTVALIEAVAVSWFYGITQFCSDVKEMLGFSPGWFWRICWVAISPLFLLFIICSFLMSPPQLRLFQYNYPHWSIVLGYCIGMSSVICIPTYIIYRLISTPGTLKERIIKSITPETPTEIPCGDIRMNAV
Sequence of hNET (P23975 whole entry): as the sequence (P23975 whole entry) above

The compound `CC1NCCOC1c1ccccc1F` (centres unmarked) [2-FPM, 2-(2-Fluorophenyl)-3-methylmorpholine] registered an EC50 on SERT of 4.81 ± 1.26 µM. For the same compound, on human DAT (hDAT), the “DAT / NET ratio (uptake inhibition)” value is given as 0.97, the “DAT / SERT ratio (uptake inhibition)” value is reported as 340.1 and the IC50 was found to be 1.33 ± 0.09 µM. Besides, the “NET / SERT ratio (release)” value with NET came to 172. Further, at human SERT (hSERT), the IC50 turned out to be 454 ± 15.4 µM. Further, at human SERT (hSERT) (at concentrations below 30 µM), the “Effect on SERT mediated uptake” value is “no obvious effect”. Also, the “Ionic current mediated via hSERT” value at hSERT [1] (30 µM) was −4 pA. For the same compound, the “Kind of current evoked in SERT-expressing cells” value (“Kind of current evoked” below) on hSERT [1] is “inwardly directed ionic currents”. At hSERT [2], the “Effect on efflux of [3H]5-HT via hSERT versus basal” value is recorded as “no detectable effect”. The “Effect on efflux of [3H]MPP+ via hNET versus basal” value on hNET was “increased tritium outflow above basal levels”. Besides, the “Effect on efflux of [3H]MPP+ via hDAT versus basal” value on hDAT [3] is “increased tritium outflow above basal levels”. Moreover, on DAT [4], the midpoint of the response, the EC50, lay at 0.112 ± 0.01 µM; the “DAT / NET ratio (release)” value stood at 0.25; the “DAT / SERT ratio (release)” value was determined as 43. On human NET (hNET), the “NET / SERT ratio (uptake inhibition)” value turned out to be 351.4 and inhibition was half-maximal at 1.29 ± 0.03 µM (IC50).
As for `CC1NCCOC1c1cccc(F)c1` (centres unmarked) [3-FPM, 2-(3-fluorophenyl)-3-methylmorpholine], on SERT, the response was half-maximal at 1.27 ± 0.207 µM (EC50). On human DAT (hDAT), the “DAT / NET ratio (uptake inhibition)” value is listed as 1.31, the “DAT / SERT ratio (uptake inhibition)” value is 96.4 and the IC50 was 1.16 ± 0.29 µM. Also, the “NET / SERT ratio (release)” value in the assay with NET is 75. The IC50 against human SERT (hSERT) turned out to be 112 ± 13.1 µM. Also, on hSERT [1] (10 µM), the “Ionic current mediated via hSERT” value is −3.8 pA. For the same compound, the “Kind of current evoked” value on hSERT [1] is recorded as “inwardly directed ionic currents”. On DAT [4], a half-maximal effect (EC50) was put at 0.06 ± 0.004 µM, the “DAT / NET ratio (release)” value is reported as 0.28 and the “DAT / SERT ratio (release)” value turned out to be 21. On human NET (hNET), the “NET / SERT ratio (uptake inhibition)” value worked out at 73.7 and the IC50 turned out to be 1.51 ± 0.17 µM.
`CC1NCCOC1c1ccc(F)cc1` (centres unmarked) [4-FPM, 2-(4-fluorophenyl)-3-methylmorpholine]: it took 1.89 ± 0.424 µM to reach a half-maximal effect on SERT (EC50). At human DAT (hDAT), the “DAT / NET ratio (uptake inhibition)” value is 0.96, the “DAT / SERT ratio (uptake inhibition)” value is given as 41.2 and half-maximal inhibition (IC50) required 2.14 ± 0.39 µM. In addition, the “NET / SERT ratio (release)” value in the assay with NET is on record as 33. It took 88.1 ± 1.83 µM to reach half-maximal inhibition at human SERT (hSERT) (IC50). For the same compound, at hSERT [1] (10 µM), the “Ionic current mediated via hSERT” value is on record as −2.5 pA. The “Kind of current evoked” value at hSERT [1] is listed as “inwardly directed ionic currents”. Moreover, the “Effect on efflux of [3H]5-HT via hSERT versus basal” value on hSERT [2] is listed as “significantly enhanced basal release; also recorded: moderate release”. Also, at hNET, the “Effect on efflux of [3H]MPP+ via hNET versus basal” value was “increased tritium outflow above basal levels”. Moreover, the “Effect on efflux of [3H]MPP+ via hDAT versus basal” value at hDAT [3] is listed as “increased tritium outflow above basal levels”. For the same compound, at DAT [4], the EC50 amounted to 0.191 ± 0.017 µM, the “DAT / NET ratio (release)” value is reported as 0.30 and the “DAT / SERT ratio (release)” value was 10. In addition, on human NET (hNET), the “NET / SERT ratio (uptake inhibition)” value was 42.9 and the 50% inhibitory concentration (IC50) is 2.05 ± 0.28 µM.
For `NCCc1c[nH]c2ccc(O)cc12` [5-HT, 5-hydroxytryptamine, reference compound], the “Ionic current mediated via hSERT” value at hSERT [1] (30 µM) is −7 pA. On hSERT [1], the “Kind of current evoked” value is listed as “inwardly directed ionic currents”.
Regarding `COC(=O)[C@H]1[C@@H](OC(=O)c2ccccc2)C[C@@H]2CC[C@H]1N2C` [cocaine, reference compound], at hSERT [1] (10 µM), the “Ionic current mediated via hSERT” value is on record as “outwardly directed current”.
For `CC1NCCOC1c1ccccc1` (centres unmarked) [phenmetrazine], at DAT [5], the “DAT-selectivity compared to SERT” value is recorded as “at least 10 fold”. In addition, the “Interaction with VMAT2 as an inhibitor or substrate” value in [6] was “does not interact”. For the same compound, the “Extracellular dopamine and serotonin in nucleus accumbens” value in assay [7] is recorded as “dose-related elevations”. The “Current induced in cells expressing hDAT” value on hDAT [8] was “inwardly-directed sodium current”.
